Patent US20090306133A1, “New Acetyl Coenzyme A Carboxylase (ACC) Inhibitors And Uses In Treatments Of Obesity And Diabetes Mellitus - 087” (ASTRAZENECA AB, priority 2007, published 2009)

Experiments:
[1] = biological target: Human recombinant Acetyl-CoA Carboxylase 2 (ACC2) (Homo sapiens, UniProt O00763); assay: Assay Y: ACC2 inhibition, inorganic phosphate (Malachite Green); assay type: biochemical; settings: Assay Y: room temperature, 3 hr, 15 min preincubation
Procedure: (§1) Preincubation of 6 μL enzyme together with 0.3 μL compound for 15 min was done before the reaction was initiated by the addition of 4 μL substrate. […] After 3 hr the reaction was stopped by addition of 60 μL of water followed by 30 μL Malachite Green solution. The Malachite Green solution was prepared by mixing 16.4 mL ammonium molybdate solution (7.5%), 1.64 mL Tween (11%) with 82 mL Malachite Green/H2SO4-solution (0.7 g Malachite Green to 1000 mL of 10% (v/v) H2SO4). Plates were left for 10 min at room temperature before reading the absorbance at 670 nm. All compounds were tested in triplicate at 10 different concentrations. Control compound (0, 50 and 100% effect) was included on each plate. […] An IC50 value was derived by non-linear regression curve fitting using the following equation: […]))) where A is the non-specific binding, B is the total binding, C is the IC50 and D is the slope. Saturation binding Kd and Bmax were derived using the equation y=((B1 max*x)/(Kd+x)).

[2] = biological target: Human recombinant Acetyl-CoA Carboxylase 1 (ACC1) (Homo sapiens, UniProt Q13085); assay: Assay Y: ACC1 inhibition, inorganic phosphate (Malachite Green); assay type: biochemical; settings: Assay Y: room temperature, 3 hr, 15 min preincubation
Procedure: as §1

Human recombinant Acetyl-CoA Carboxylase 2 (ACC2), sequence (O00763 whole entry): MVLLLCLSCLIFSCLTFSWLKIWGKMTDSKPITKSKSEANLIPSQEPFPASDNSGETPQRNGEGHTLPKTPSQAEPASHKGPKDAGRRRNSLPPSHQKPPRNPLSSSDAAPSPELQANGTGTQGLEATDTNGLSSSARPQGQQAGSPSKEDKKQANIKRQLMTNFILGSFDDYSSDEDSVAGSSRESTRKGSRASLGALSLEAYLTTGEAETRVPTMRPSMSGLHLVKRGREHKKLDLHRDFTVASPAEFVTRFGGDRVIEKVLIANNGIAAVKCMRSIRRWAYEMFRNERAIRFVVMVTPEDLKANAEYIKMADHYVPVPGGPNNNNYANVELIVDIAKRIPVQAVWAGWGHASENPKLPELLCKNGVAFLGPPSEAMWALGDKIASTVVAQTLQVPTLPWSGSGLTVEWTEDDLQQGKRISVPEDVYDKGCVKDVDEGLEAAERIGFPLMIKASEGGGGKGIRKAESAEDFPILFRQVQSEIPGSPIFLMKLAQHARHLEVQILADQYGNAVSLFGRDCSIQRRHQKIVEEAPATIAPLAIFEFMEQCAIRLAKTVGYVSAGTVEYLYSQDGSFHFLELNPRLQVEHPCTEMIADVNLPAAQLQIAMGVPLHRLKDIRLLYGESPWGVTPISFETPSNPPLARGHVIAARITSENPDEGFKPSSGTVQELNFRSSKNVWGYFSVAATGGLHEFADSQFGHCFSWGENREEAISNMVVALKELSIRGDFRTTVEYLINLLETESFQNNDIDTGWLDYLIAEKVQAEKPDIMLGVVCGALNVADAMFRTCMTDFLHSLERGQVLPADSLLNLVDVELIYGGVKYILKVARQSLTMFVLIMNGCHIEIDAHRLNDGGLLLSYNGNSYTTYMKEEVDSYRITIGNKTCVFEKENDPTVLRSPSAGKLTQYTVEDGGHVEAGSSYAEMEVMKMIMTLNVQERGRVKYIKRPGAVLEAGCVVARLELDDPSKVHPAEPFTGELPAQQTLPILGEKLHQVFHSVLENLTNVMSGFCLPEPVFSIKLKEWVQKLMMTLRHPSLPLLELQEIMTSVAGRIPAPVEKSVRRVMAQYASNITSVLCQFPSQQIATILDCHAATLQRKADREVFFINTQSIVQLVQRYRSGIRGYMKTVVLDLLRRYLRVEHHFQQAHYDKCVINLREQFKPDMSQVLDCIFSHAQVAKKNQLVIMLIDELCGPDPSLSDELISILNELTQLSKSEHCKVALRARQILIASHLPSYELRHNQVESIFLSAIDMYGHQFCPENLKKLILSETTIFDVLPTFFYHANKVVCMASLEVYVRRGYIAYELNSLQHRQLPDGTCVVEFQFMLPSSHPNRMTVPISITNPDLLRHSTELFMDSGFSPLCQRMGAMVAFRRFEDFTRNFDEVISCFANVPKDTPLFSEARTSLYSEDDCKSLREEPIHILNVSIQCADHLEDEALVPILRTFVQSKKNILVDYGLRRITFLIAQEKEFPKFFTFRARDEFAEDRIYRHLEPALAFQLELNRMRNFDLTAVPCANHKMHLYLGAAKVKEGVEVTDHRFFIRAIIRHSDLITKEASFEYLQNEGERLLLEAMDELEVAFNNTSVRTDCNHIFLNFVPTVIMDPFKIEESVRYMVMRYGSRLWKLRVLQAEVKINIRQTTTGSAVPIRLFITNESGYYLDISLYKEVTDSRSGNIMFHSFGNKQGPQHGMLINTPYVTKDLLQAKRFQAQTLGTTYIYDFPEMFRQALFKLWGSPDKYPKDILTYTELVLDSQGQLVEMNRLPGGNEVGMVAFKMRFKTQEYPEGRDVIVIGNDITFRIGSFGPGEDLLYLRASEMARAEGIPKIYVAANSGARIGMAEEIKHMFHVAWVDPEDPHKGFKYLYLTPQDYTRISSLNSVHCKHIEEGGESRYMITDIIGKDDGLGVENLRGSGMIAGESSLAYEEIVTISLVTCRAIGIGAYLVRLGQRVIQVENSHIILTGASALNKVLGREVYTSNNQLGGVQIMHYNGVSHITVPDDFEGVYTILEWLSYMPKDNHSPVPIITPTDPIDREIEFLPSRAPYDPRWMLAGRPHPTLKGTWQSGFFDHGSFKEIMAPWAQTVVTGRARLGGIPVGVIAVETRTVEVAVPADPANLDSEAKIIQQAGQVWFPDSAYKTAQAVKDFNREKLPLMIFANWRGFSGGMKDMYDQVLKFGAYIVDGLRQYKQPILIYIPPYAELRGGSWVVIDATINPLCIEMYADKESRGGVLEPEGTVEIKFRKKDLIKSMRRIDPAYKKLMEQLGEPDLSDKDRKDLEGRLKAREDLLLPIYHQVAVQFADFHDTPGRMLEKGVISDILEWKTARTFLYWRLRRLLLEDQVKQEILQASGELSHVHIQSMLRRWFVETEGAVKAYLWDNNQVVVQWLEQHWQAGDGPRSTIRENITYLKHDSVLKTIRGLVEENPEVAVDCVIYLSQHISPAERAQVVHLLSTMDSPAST

| SMILES | IC50 [1] [µM] | IC50 [2] [µM] |
| --- | --- | --- |
| CN1CCN(c2ccc(-c3cc(C(=O)NC[C@H]4CC[C@H](CNC(=O)OCC5CCO5)CC4)c4ccccc4n3)cn2)CC1 (relative stereo) [Example 111, Oxetan-2-ylmethyl-[(trans-4-{[({2-[6-(4-methylpiperazin-1-yl)pyridin-3-yl]quinolin-4-yl}carbonyl)amino]methyl}cyclohexyl)methyl]carbamate] | 0.71 | 3.18 |
| CN1CCN(c2ccc(-c3cc(C(=O)NC[C@H]4CC[C@H](CNC(=O)OC5CCOC5)CC4)c4ccccc4n3)cn2)CC1 (relative stereo) [Example 114, Tetrahydrofuran-3-yl-[(trans-4-{[({2-[6-(4-methylpiperazin-1-yl)pyridin-3-yl]quinolin-4-yl}carbonyl)amino]methyl}cyclohexyl)methyl]carbamate] | 0.33 | 2.38 |
| COC[C@H](C)OC(=O)NC[C@H]1CC[C@H](CNC(=O)c2cc(-c3ccc(N4CCN(C)CC4)nc3)nc3ccccc23)CC1 (stereo in doubt) [Example 112, (1S)-2-Methoxy-1-methylethyl[(trans-4-{[({2-[6-(4-methylpiperazin-1-yl)pyridin-3-yl]quinolin-4-yl}carbonyl)amino]methyl}cyclohexyl)methyl]carbamate] | 0.38 | 2.71 |
| COC[C@@H](C)OC(=O)NC[C@H]1CC[C@H](CNC(=O)c2cc(-c3ccc(N4CCN(C)CC4)nc3)nc3ccccc23)CC1 (stereo in doubt) [Example 113, (1R)-2-Methoxy-1-methylethyl[(trans-4-{[({2-[6-(4-methylpiperazin-1-yl)pyridin-3-yl]quinolin-4-yl}carbonyl)amino]methyl}cyclohexyl)methyl]carbamate] | 0.94 | 7.8 |
| Cc1[nH]c(=O)ccc1-c1cc(C(=O)NC[C@H]2CC[C@H](CNC(=O)OC(C)(C)C)CC2)c2ccccc2n1 [Example 2, tert-Butyl ({trans-4-[({[2-(2-methyl-6-oxo-1,6-dihydropyridin-3-yl)quinolin-4-yl]carbonyl}amino)methyl]cyclohexyl}methyl)carbamate] | 2.96 | > 20 |
| CC(C)(C)OC(=O)NC[C@H]1CC[C@H](CNC(=O)c2cc(-c3cnccn3)nc3ccccc23)CC1 [Example 3, tert-Butyl {[trans-4-({[(2-pyrazin-2-ylquinolin-4-yl)carbonyl]amino}methyl)cyclohexyl]methyl}carbamate] | 0.65 | 1.52 |
| CCOc1ccc(-c2cc(C(=O)NC[C@H]3CC[C@H](CNC(=O)OC(C)(C)C)CC3)c3ccccc3n2)cc1 [Example 4, tert-Butyl ({trans-4-[({[2-(4-ethoxyphenyl)quinolin-4-yl]carbonyl}amino)methyl]-cyclohexyl}methyl)carbamate] | 0.39 | 1.33 |
| CC(C)(C)OC(=O)NC[C@H]1CC[C@H](CNC(=O)c2cc(-c3ccc(C(N)=O)nc3)nc3ccccc23)CC1 [Example 5, tert-Butyl ({trans-4-[({[2-(6-carbamoylpyridin-3-yl)quinolin-4-yl]carbonyl}amino)-methyl]cyclohexyl}methyl)carbamate] | 0.26 | 1.22 |
| CC(C)(C)OC(=O)NC[C@H]1CC[C@H](CNC(=O)c2cc(-c3ccc(C(F)(F)F)cc3)nc3ccccc23)CC1 [Example 12, tert-Butyl [(trans-4-{[({2-[4-(trifluoromethyl)phenyl]quinolin-4-yl}carbonyl)amino]-methyl}cyclohexyl)methyl]carbamate] | 0.56 | > 20 |
| Cc1noc(C)c1-c1cc(C(=O)NC[C@H]2CC[C@H](CNC(=O)OC(C)(C)C)CC2)c2ccccc2n1 [Example 15, tert-Butyl ({trans-4-[({[2-(3,5-dimethylisoxazol-4-yl)quinolin-4-yl]carbonyl}amino)-methyl]cyclohexyl}methyl)carbamate] | 2.87 | > 20 |
| CC(C)(C)OC(=O)NC[C@H]1CC[C@H](CNC(=O)c2cc(-c3cccnc3)nc3ccccc23)CC1 [Example 16, tert-Butyl {[trans-4-({[(2-pyridin-3-ylquinolin-4-yl)carbonyl]amino}methyl)cyclo-hexyl]methyl}carbamate] | 0.32 | 2.03 |
| CCOC(=O)NC[C@H]1CC[C@H](CNC(=O)c2cc(-c3ccc(F)cc3)nc3ccccc23)CC1 [Example 17, Ethyl ({trans-4-[({[2-(4-fluorophenyl)quinolin-4-yl]carbonyl}amino)methyl]cyclo-hexyl}methyl)carbamate] | 1.94 | > 20 |
| CCOC(=O)NC[C@H]1CC[C@H](CNC(=O)c2cc(-c3ccc(C(=O)N(C)C)cc3)nc3ccccc23)CC1 [Example 18, Ethyl [(trans-4-{[({2-[4-(dimethylcarbamoyl)phenyl]quinolin-4-yl}carbonyl)amino]-methyl}cyclohexyl)methyl]carbamate] | 1.8 | 4.85 |
| CCOC(=O)NC[C@H]1CC[C@H](CNC(=O)c2cc(-c3cccc(C(N)=O)c3)nc3ccccc23)CC1 [Example 19, Ethyl ({trans-4-[({[2-(3-carbamoylphenyl)quinolin-4-yl]carbonyl}amino)methyl]-cyclohexyl}methyl)carbamate] | 0.78 | 1.21 |
| Cc1ccc(-c2cc(C(=O)NC[C@H]3CC[C@H](CNC(=O)OC(C)(C)C)CC3)c3ccccc3n2)cc1 [Example 20, tert-Butyl ({trans-4-[({[2-(4-methylphenyl)quinolin-4-yl]carbonyl}amino)methyl]-cyclohexyl}methyl)carbamate] | 0.62 | 1.29 |
| CC(C)(C)OC(=O)NC[C@H]1CC[C@H](CNC(=O)c2cc(-c3ccc(Cl)cc3)nc3ccccc23)CC1 [Example 21, tert-Butyl ({trans-4-[({[2-(4-chlorophenyl)quinolin-4-yl]carbonyl}amino)methyl]cyclo-hexyl}methyl)carbamate] | 0.97 | 1.49 |
| CC(C)(C)OC(=O)NC[C@H]1CC[C@H](CNS(=O)(=O)c2ccc3c(c2)OCCO3)CC1 [Example 69, tert-Butyl [(trans-4-{[(2,3-dihydro-1,4-benzodioxin-6-ylsulfonyl)amino]methyl}cyclo-hexyl)methyl]carbamate] | 4.76 | – |

Compounds with a lower IC50 [1], results first:

| IC50 [1] [µM] | IC50 [2] [µM] | SMILES |
| --- | --- | --- |
| 0.05 | 0.2 | CN1CCN(c2ccc(-c3cc(C(=O)NC[C@H]4CC[C@H](CNC(=O)OC(C)(C)C)CC4)c4ccccc4n3)cn2)CC1 [Example 1, tert-butyl [(trans-4-{[({2-[6-(4-methylpiperazin-1-yl)pyridin-3-yl]quinolin-4-yl}carbonyl)amino]methyl}cyclohexyl)methyl]carbamate] |
| 0.24 | 0.56 | CC(C)(C)OC(=O)NC[C@H]1CC[C@H](CNC(=O)c2cc(-c3ccccc3)nc3ccccc23)CC1 [Example 6, tert-butyl {[trans-4-({[(2-phenylquinolin-4-yl)carbonyl]amino}methyl)cyclohexyl]methyl}carbamate] |
| 0.21 | 1.03 | CC(C)(C)OC(=O)NC[C@H]1CC[C@H](CNC(=O)c2cc(-c3ccncc3)nc3ccccc23)CC1 [Example 7, tert-butyl {[trans-4-({[(2-pyridin-4-ylquinolin-4-yl)carbonyl]amino}methyl)cyclohexyl]methyl}-carbamate] |
| 0.08 | 0.31 | CC(C)(C)OC(=O)NC[C@H]1CC[C@H](CNC(=O)c2cc(-c3cccc(C(N)=O)c3)nc3ccccc23)CC1 [Example 8, tert-Butyl ({trans-4-[({[2-(3-carbamoylphenyl)quinolin-4-yl]carbonyl}amino)methyl]-cyclohexyl}methyl)carbamate] |
| 0.04 | 0.25 | CC(C)(C)OC(=O)NC[C@H]1CC[C@H](CNC(=O)c2cc(-c3ccc(C(N)=O)cc3)nc3ccccc23)CC1 [Example 9, tert-butyl ({trans-4-[({[2-(4-carbamoylphenyl)quinolin-4-yl]carbonyl}amino)methyl]cyclohexyl}methyl)carbamate] |
| 0.04 | 0.3 | CN(C)CCCOc1ccc(-c2cc(C(=O)NC[C@H]3CC[C@H](CNC(=O)OC(C)(C)C)CC3)c3ccccc3n2)cn1 [Example 10, tert-Butyl {[trans-4-({[(2-{6-[3-(dimethylamino)propoxy]pyridin-3-yl}quinolin-4-yl)carbonyl]amino}methyl)cyclohexyl]methyl}carbamate] |
| 0.1 | 1.22 | CN(C)c1ccc(-c2cc(C(=O)NC[C@H]3CC[C@H](CNC(=O)OC(C)(C)C)CC3)c3ccccc3n2)cn1 [Example 11, tert-Butyl [(trans-4-{[({2-[6-(dimethylamino)pyridin-3-yl]quinolin-4-yl}carbonyl)-amino]methyl}cyclohexyl)methyl]carbamate] |
| 0.16 | 0.45 | CC(=O)c1ccc(-c2cc(C(=O)NC[C@H]3CC[C@H](CNC(=O)OC(C)(C)C)CC3)c3ccccc3n2)s1 [Example 13, tert-Butyl ({trans-4-[({[2-(5-acetyl-2-thienyl)quinolin-4-yl]carbonyl}amino)methyl]-cyclohexyl}methyl)carbamate] |
| 0.18 | 0.69 | CC(C)(C)OC(=O)NC[C@H]1CC[C@H](CNC(=O)c2cc(-c3ccc(F)cc3)nc3ccccc23)CC1 [Example 14, tert-Butyl ({trans-4-[({[2-(4-fluorophenyl)quinolin-4-yl]carbonyl}amino)methyl]-cyclohexyl}methyl)carbamate] |
